Results reported in ChEMBL document CHEMBL4680194, “Synthesis and biological evaluation of 1,2,4-triazole derivatives as potential neuroprotectant against ischemic brain injury” (Eur J Med Chem, 2020).
Calls of active or inactive are those of the source. The calls are words filed in the database; no cut-off is given here.

Experiments:
[1] = tested on: PC-12; test: Antioxidant activity in rat PC-12 cells assessed as reduction in SNP-induced ROS level incubated for 1 hr followed by SNP stimulation and measured after 24 hrs by DCFH-DA staining based fluorescence microscopy; assay type: functional, cell-based; conditions: dose 2.5-10 µM, time 25.0 hrs
[2] = tested on: PC-12; test: Cytoprotective activity against SNP-induced cell death in rat PC-12 cells assessed as increase in cell viability incubated for 1 hr followed by SNP stimulation and measured after 24 hrs by LDH assay; assay type: functional, cell-based; conditions: time 25.0 hrs
[3] = tested on: PC-12; test: Cytoprotective activity against H2O2-induced cell death in rat PC-12 cells assessed as increase in cell viability at 10 uM incubated for 1 hr followed by H2O2 stimulation and measured after 5 hrs by MTT assay; assay type: functional; conditions: time 6 hrs
[4] = tested on: Rattus norvegicus; test: Neuroprotective activity in Sprague-Dawley rat model of middle cerebral artery occlusion-induced ischemic injury assessed as infarction volume at 10 mg/kg, ip administered TID and measured after 6 hrs by TTC staining based assay (reference value: 28.67 +/- 2.90 %); assay type: functional
[5] = tested on: Rattus norvegicus; test: Neuroprotective activity in Sprague-Dawley rat model of middle cerebral artery occlusion-induced ischemic injury assessed as infarction volume at 30 mg/kg, ip administered TID and measured after 6 hrs by TTC staining based assay (reference value: 28.67 +/- 2.90 %); assay type: functional
[6] = tested on: Rattus norvegicus; test: Neuroprotective activity in Sprague-Dawley rat model of middle cerebral artery occlusion-induced ischemic injury assessed as increase in MDA level at 3 to 30 mg/kg, ip administered TID and measured after 24 hrs by ELISA; assay type: functional, organism-based; conditions: dose 3-30 mg/kg
[7] = tested on: Rattus norvegicus; test: Neuroprotective activity in Sprague-Dawley rat model of middle cerebral artery occlusion-induced ischemic injury assessed as decrease in IL-1beta level at 3 to 30 mg/kg, ip administered TID and measured after 24 hrs by ELISA; assay type: functional, organism-based; conditions: dose 3-30 mg/kg
[8] = Toxicity in […] assessed as body weight at 400 mg/kg, ip observed after immediately (reference value: 24.4 to 28.4 g); assay type: organism-based; conditions: in vivo
[9] = Toxicity in […] assessed as body weight at 400 mg/kg, ip measured on day 5 (reference value: 24.4 to 28.4 g); assay type: organism-based; conditions: in vivo, 120 h, time 5 day
[10] = Toxicity in […] assessed as body weight at 400 mg/kg, ip measured on day 7 (reference value: 24.4 to 28.4 g); assay type: organism-based; conditions: in vivo, 168 h, time 7 day
[11] = tested on: PC-12; test: Effect on Nrf2 in rat PC-12 cells at 1.25 to 5 uM incubated for 24 hrs by Western blot analysis; assay type: functional, cell-based; conditions: dose 1.25-5 µM
[12] = biological target: T1, Nuclear factor erythroid 2-related factor 2 (Rattus norvegicus) (UniProt O54968); test: Induction of Nrf2 nuclear translocation in rat PC-12 cells assessed as decrease in cytoplasmic Nrf2 level at 1.25 to 5 uM incubated for 24 hrs by Western blot analysis; assay type: cell-based; conditions: dose 1.25-5 µM
T1 sequence (whole entry): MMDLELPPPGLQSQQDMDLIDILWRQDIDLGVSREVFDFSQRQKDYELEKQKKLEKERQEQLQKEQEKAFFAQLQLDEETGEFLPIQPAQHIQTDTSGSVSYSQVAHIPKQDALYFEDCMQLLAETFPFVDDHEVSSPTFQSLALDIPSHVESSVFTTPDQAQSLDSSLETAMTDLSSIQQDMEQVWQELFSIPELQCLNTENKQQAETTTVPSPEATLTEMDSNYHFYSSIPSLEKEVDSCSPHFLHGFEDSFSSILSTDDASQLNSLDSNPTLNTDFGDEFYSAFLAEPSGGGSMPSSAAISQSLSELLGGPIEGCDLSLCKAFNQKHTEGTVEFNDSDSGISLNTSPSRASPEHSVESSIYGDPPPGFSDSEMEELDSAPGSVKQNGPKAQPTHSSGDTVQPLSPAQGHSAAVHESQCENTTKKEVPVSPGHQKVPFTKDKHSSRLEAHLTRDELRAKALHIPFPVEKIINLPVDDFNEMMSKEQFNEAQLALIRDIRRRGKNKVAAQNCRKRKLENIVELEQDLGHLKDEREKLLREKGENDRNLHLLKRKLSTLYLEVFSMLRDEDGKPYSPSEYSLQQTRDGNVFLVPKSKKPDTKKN

[13] = biological target: T1, Nuclear factor erythroid 2-related factor 2 (Rattus norvegicus); test: Induction of Nrf2 nuclear translocation in rat PC-12 cells assessed as increase in nuclear Nrf2 level at 1.25 to 5 uM incubated for 24 hrs by Western blot analysis; assay type: cell-based; conditions: dose 1.25-5 µM
[14] = biological target: T1, Nuclear factor erythroid 2-related factor 2 (Rattus norvegicus); test: Induction of Nrf2 nuclear translocation in rat PC-12 cells assessed as H2O2-induced GSH level at 2.5 uM incubated for 1 hr followed by H2O2 stimulation and measured after 5 hrs (reference value: 65.52 +/- 1.44 nM/mg); assay type: cell-based; conditions: time 6.0 hrs
[15] = biological target: T1, Nuclear factor erythroid 2-related factor 2 (Rattus norvegicus); test: Induction of Nrf2 nuclear translocation in rat PC-12 cells assessed as H2O2-induced GSH level at 10 uM incubated for 1 hr followed by H2O2 stimulation and measured after 5 hrs (reference value: 65.52 +/- 1.44 nM/mg); assay type: cell-based; conditions: time 6.0 hrs
[16] = biological target: T1, Nuclear factor erythroid 2-related factor 2 (Rattus norvegicus); test: Induction of Nrf2 nuclear translocation in rat PC-12 cells assessed as H2O2-induced GSH-px level at 10 uM incubated for 1 hr followed by H2O2 stimulation and measured after 5 hrs (reference value: 45.92 +/- 3.64 mU/mg); assay type: cell-based; conditions: time 6.0 hrs
[17] = biological target: T1, Nuclear factor erythroid 2-related factor 2 (Rattus norvegicus); test: Induction of Nrf2 nuclear translocation in rat PC-12 cells assessed as H2O2-induced SOD level at 2.5 uM incubated for 1 hr followed by H2O2 stimulation and measured after 5 hrs (reference value: 29.69 +/- 1.65 U/mg); assay type: cell-based; conditions: time 6.0 hrs
[18] = biological target: T1, Nuclear factor erythroid 2-related factor 2 (Rattus norvegicus); test: Induction of Nrf2 nuclear translocation in rat PC-12 cells assessed as H2O2-induced SOD level at 5 uM incubated for 1 hr followed by H2O2 stimulation and measured after 5 hrs (reference value: 29.69 +/- 1.65 U/mg); assay type: cell-based; conditions: time 6.0 hrs
[19] = biological target: T1, Nuclear factor erythroid 2-related factor 2 (Rattus norvegicus); test: Induction of Nrf2 nuclear translocation in rat PC-12 cells assessed as SNP-induced GSH level at 5 uM incubated for 1 hr followed by SNP stimulation and measured after 24 hrs (reference value: 75.78 +/- 1.74 nM/mg); assay type: cell-based; conditions: time 25.0 hrs
[20] = biological target: T1, Nuclear factor erythroid 2-related factor 2 (Rattus norvegicus); test: Induction of Nrf2 nuclear translocation in rat PC-12 cells assessed as SNP-induced SOD level at 5 uM incubated for 1 hr followed by SNP stimulation and measured after 24 hrs (reference value: 23.74 +/- 2.02 U/mg); assay type: cell-based; conditions: time 25.0 hrs
[21] = biological target: T1, Nuclear factor erythroid 2-related factor 2 (Rattus norvegicus); test: Induction of Nrf2 nuclear translocation in rat PC-12 cells assessed as H2O2-induced SOD level incubated for 1 hr followed by H2O2 stimulation and measured after 5 hrs; assay type: cell-based; conditions: dose 2.5-10 µM, time 6.0 hrs
[22] = biological target: T1, Nuclear factor erythroid 2-related factor 2 (Rattus norvegicus); test: Induction of Nrf2 nuclear translocation in rat PC-12 cells assessed as SNP-induced SOD level incubated for 1 hr followed by SNP stimulation and measured after 24 hrs; assay type: cell-based; conditions: dose 2.5-10 µM, time 25.0 hrs
[23] = Half life in Sprague-Dawley rat at 20 mg/kg, po measured upto 24 hrs by LC-MS/MS analysis; assay type: ADME, organism-based; conditions: in vivo
[24] = Tmax in Sprague-Dawley rat at 20 mg/kg, po measured upto 24 hrs by LC-MS/MS analysis; assay type: ADME, organism-based; conditions: in vivo
[25] = Half life in Sprague-Dawley rat at 2 mg/kg, iv measured upto 24 hrs by LC-MS/MS analysis; assay type: ADME, organism-based; conditions: in vivo

For `COc1ccc(-c2nc(-c3ccccc3O)n(-c3ccc(S(N)(=O)=O)cc3)n2)c(O)c1`, the inhibition [1] was “Dose-dependent effect”, the Activity [2] was “Dose-dependent effect” and the Activity [3] was 30%. For the same compound, the Activity [4] was 12.59%, the Activity [5] was 18.06% and the Activity [6] was “Active”. For the same compound, the Activity [7] was “Active”, the Activity [8] was 24.6 g and the Activity [9] was 24.9 g. For the same compound, the Activity [10] was 25.7 g, the Activity [11] was “inactive” and the Activity [12] was “Active”. The Activity [13] was “Active”, the Activity [14] was 70.4 nM/mg and the Activity [15] was 80.6 nM/mg. The Activity [16] was 77.9 mU/mg, the Activity [17] was 36.3 U/mg and the Activity [18] was 38.9 U/mg. For the same compound, the Activity [19] was 86.7 nM/mg, the Activity [20] was 34.9 U/mg and the Activity [21] was “Dose-dependent effect”. The Activity [22] was “Dose-dependent effect”, the half-life [23] was 4.26 h and the Tmax [24] was 2 h. It also gave a half-life [25] of 5.11 h.
